Experimental data: patent US11699530B2, “Use of multivariate analysis to assess treatment approaches” (RENSSELAER POLYTECHNIC INSTITUTE, priority 2018, dated 2023)
“Also recorded” adds a separate entry of the source.

What was measured:
ASD-related symptoms = conditions: cited from earlier work
[1] = test system: FOCM/TS metabolic profiles of individuals with ASD; assay: FDA model evaluation of clinical trial treatment data (Type II error and discriminant score shift); assay type: in vivo, children; conditions: for Post-treatment Type II Error: PDF of post-treatment discriminant scores with respect to H0, 12 weeks (BH4: average of 8 and 16 weeks); for Effect Size (95% CI): median paired pre-to-post-treatment change in discriminant score, CI by bootstrap, 10,000 replications; for Change in Type II Error: pre- to post-treatment, with respect to H0; for change in Type II error / correction of metabolic abnormalities (in words): comparison among treatments
Description: MeCbl+LDFA Treatment Data. Subcutaneously injected MeCbl (75 μg/kg, once every three days) in combination with oral LDFA (400 μg, twice per day) was given to children with autism in a 12-week open-label trial. Included children were aged 2 to 7 years and met the diagnostic criteria for autism as defined by the DSM-IV in addition to having a Childhood Autism Rating Scales score greater than 30. Boys and girls made up 82% and 18% of participants in this study, respectively. The IRB at the University of Arkansas for Medical Sciences approved the protocol for this study.
BH4 Treatment Data. A 16-week open-label trial investigated the effects of orally administered BH4 (20 mg/kg, once per day) in children aged 2 to 6 years old with a previous diagnosis of ASD that was confirmed at the time of evaluation with DSM-IV criteria. […] Study participants were 90% males. Approval for this study was given by the IRB at the University of Texas Health Science Center at Houston, Tex. FOCM/TS markers were measured at 8 and 16 weeks following the onset of treatment in this trial; to maintain consistency with the other trials where markers were measured after 12 weeks, the averages of the measurements taken at 8 and 16 weeks were used.
HDFA Treatment Data. A double-blind placebo-controlled trial of HDFA (2 mg/kg per day up to a maximum of 50 mg daily, given orally) was administered over 12 weeks to children between 3 and 14 years of age. ASD diagnoses were made using the Autism Diagnostic Observation Schedule and/or Autism Diagnostic Interview—Revised, or by agreement between physician, psychologist, and speech therapist, or by a physician's diagnosis according to the Diagnostic and Statistical Manual of Mental Disorders, Fifth Edition with later confirmation by the investigators. All children were required to have documented language impairment. 78% of the treatment group were male while 80% of the placebo group were male. The protocol was approved by the IRB at the University of Arkansas for Medical Sciences. All data for participants receiving a placebo in the current analysis were provided.
Biochemical Measurements. Concentrations and ratios of metabolites in the FOCM and TS pathways were measured in each of the above studies, with fifteen measurements appearing in all four data sets. Six of these measures were associated with DNA methylation: methionine, S-adenosylmethionine (SAM), S-adenosylhomocysteine (SAH), the SAM/SAH ratio (an indicator of DNA methylation capacity), homocysteine, and adenosine. The remaining nine measures were precursors of glutathione or markers of redox metabolism: total cysteine, glutamylcysteine (Glu-Cys), cysteinylglycine (Cys-Gly), total and free reduced glutathione (tGSH and fGSH, respectively), oxidized glutathione (GSSG), the ratios of total and free reduced glutathione to oxidized glutathione (tGSH/GSSG and fGSH/GSSG, respectively; these are indicators of intracellular oxidative stress), and percent oxidized glutathione (a derived measure calculated as 2GSSG/[GSH+2GSSG]).
Fisher Discriminant Analysis. Individuals of the IMAGE study were separated into ASD and TD cohorts using Fisher discriminant analysis (FDA). FDA used the data matrix X of size n×m as input, where n study participants are each defined by m biochemical measurements. Sample information for study participant i was contained in row vector xi (size 1×m) and that participant's value for measurement j is indicated by xi,j. The input matrix X were considered as two matrices XASD and XTD taken to represent the separate samples for the ASD and TD cohorts, respectively, with XASD composed of nASD samples and XTD having nTD samples. […]

| Compound | outcome of treatment (cerebrospinal fluid, symptoms and behavior) (ASD-related symptoms; ASD) | outcome of open-label and double-blind placebo-controlled studies (ASD-related symptoms; children with ASD) | Post-treatment Type II Error [1] [%] | Effect Size (95% CI) [1] | Change in Type II Error [1] | change in Type II error / correction of metabolic abnormalities (in words) [1] | 95% CI for the effect size relative to zero (in words) ([1]; bootstrap 95% CI of median change in discriminant score) |
| --- | --- | --- | --- | --- | --- | --- | --- |
| Nc1nc(=O)c2c([nH]1)NCC(CNc1ccc(C(=O)N[C@@H](CCC(=O)O)C(=O)O)cc1)N2C=O (mixture of isomers) [folinic acid, Folinic acid] | correct certain abnormalities of the cerebrospinal fluid and improve ASD-related symptoms and behavior | – | – | – | – | – | – |
| C/C1=C2/[N-][C@H]([C@H](CC(N)=O)[C@@]2(C)CCC(=O)NC[C@@H](C)OP(=O)([O-])O[C@H]2[C@@H](O)[C@@H](n3cnc4cc(C)c(C)cc43)O[C@@H]2CO)[C@]2(C)N=C(/C(C)=C3N=C(/C=C4N=C1[C@@H](CCC(N)=O)C\4(C)C)[C@@H](CCC(N)=O)[C@]\3(C)CC(N)=O)[C@@H](CCC(N)=O)[C@]2(C)CC(N)=O.[CH3-].[Co+3] [MeCbl, methylcobalamin] | – | improvement in metabolism and ASD-related symptoms | – | – | – | – | – |
| C[C@H](O)[C@H](O)[C@H]1CNc2nc(N)[nH]c(=O)c2N1 [BH4, tetrahydrobiopterin] | – | – | 41.1 | 0.73 | +40.8% | – | – |
| methylcobalamin (MeCbl) in combination with low-dose folinic acid (LDFA) [MeCbl + LDFA] | – | – | 43.6 | 0.89 | +41.9% | greatest correction in ASD-related metabolic abnormalities; also recorded: largest increase in Type II error | – |
| Nc1nc(=O)c2c([nH]1)NCC(CNc1ccc(C(=O)N[C@@H](CCC(=O)O)C(=O)O)cc1)N2C=O (mixture of isomers) [HDFA, high-dose folinic acid] | – | – | 49.5 | 0.17 | +17.2% | relatively small increase in Type II error | contained zero |
